Source: ChEMBL document CHEMBL1155237, “Selective inhibitors of the mutant B-Raf pathway: discovery of a potent and orally bioavailable aminoisoquinoline” (J Med Chem, 2009)

Experiments:
[1] = Volume of distribution at steady state in Sprague-Dawley rat at 2 mg/kg, iv and 5 mg/kg, po; assay type: ADME, organism-based; settings: in vivo, read-out: Vdss
[2] = biological target: Dual specificity mitogen-activated protein kinase kinase 3 (Homo sapiens) (UniProt P46734); assay: Inhibition of MEK3 assessed as enzyme activity at 1 uM relative to untreated control; parameters: scale not given: the % may be the effect or the level left
[3] = biological target: Serine/threonine-protein kinase 24 (Homo sapiens) (UniProt Q9Y6E0); assay: Inhibition of MST3 assessed as enzyme activity at 1 uM relative to untreated control; parameters: scale not given: the % may be the effect or the level left
[4] = biological target: Mast/stem cell growth factor receptor Kit (Homo sapiens) (UniProt P10721); assay: Inhibition of KIT assessed as enzyme activity at 1 uM relative to untreated control; parameters: scale not given: the % may be the effect or the level left
[5] = biological target: Mitogen-activated protein kinase kinase kinase kinase 2 (Homo sapiens) (UniProt Q12851); assay: Inhibition of MAP4K2 assessed as enzyme activity at 1 uM relative to untreated control; parameters: scale not given: the % may be the effect or the level left
[6] = biological target: Mitogen-activated protein kinase kinase kinase kinase 4 (Homo sapiens) (UniProt O95819); assay: Inhibition of MAP4K4 assessed as enzyme activity at 1 uM relative to untreated control; parameters: scale not given: the % may be the effect or the level left
[7] = biological target: Calcium/calmodulin-dependent protein kinase kinase 1 (Homo sapiens) (UniProt Q8N5S9); assay: Inhibition of CAMKK1 assessed as enzyme activity at 1 uM relative to untreated control; parameters: scale not given: the % may be the effect or the level left
[8] = biological target: Calcium/calmodulin-dependent protein kinase kinase 2 (Homo sapiens) (UniProt Q96RR4); assay: Inhibition of CAMKK2 assessed as enzyme activity at 1 uM relative to untreated control; parameters: scale not given: the % may be the effect or the level left
[9] = biological target: Cyclin-dependent kinase 11B (Homo sapiens) (UniProt P21127); assay: Inhibition of CDC2L1 assessed as enzyme activity at 1 uM relative to untreated control; parameters: scale not given: the % may be the effect or the level left
[10] = biological target: Cyclin-dependent kinase 8 (Homo sapiens) (UniProt P49336); assay: Inhibition of CDK8 assessed as enzyme activity at 1 uM relative to untreated control; parameters: scale not given: the % may be the effect or the level left
[11] = biological target: Serine/threonine-protein kinase Chk2 (Homo sapiens) (UniProt O96017); assay: Inhibition of CHEK2 assessed as enzyme activity at 1 uM relative to untreated control; parameters: scale not given: the % may be the effect or the level left
[12] = biological target: Interferon-induced, double-stranded RNA-activated protein kinase (Homo sapiens) (UniProt P19525); assay: Inhibition of PRKR assessed as enzyme activity at 1 uM relative to untreated control; parameters: scale not given: the % may be the effect or the level left
[13] = system: Proto-oncogene tyrosine-protein kinase receptor Ret (Homo sapiens), P07949 [M918T]; assay: Inhibition of RET M918T mutant assessed as enzyme activity at 1 uM relative to untreated control; parameters: scale not given: the % may be the effect or the level left
[14] = system: Proto-oncogene tyrosine-protein kinase receptor Ret (Homo sapiens), P07949 [V804M]; assay: Inhibition of RET V804M mutant assessed as enzyme activity at 1 uM relative to untreated control; parameters: scale not given: the % may be the effect or the level left
[15] = biological target: Rho-associated protein kinase 2 (Homo sapiens) (UniProt O75116); assay: Inhibition of ROCK2 assessed as enzyme activity at 1 uM relative to untreated control; parameters: scale not given: the % may be the effect or the level left
[16] = biological target: Ribosomal protein S6 kinase alpha-4 (Homo sapiens) (UniProt O75676); assay: Inhibition of RPS6KA4 kinase domain 2 assessed as enzyme activity at 1 uM relative to untreated control; parameters: scale not given: the % may be the effect or the level left
[17] = biological target: Ribosomal protein S6 kinase alpha-5 (Homo sapiens) (UniProt O75582); assay: Inhibition of RPS6KA5 kinase domain 1 assessed as enzyme activity at 1 uM relative to untreated control; parameters: scale not given: the % may be the effect or the level left
[18] = biological target: Ribosomal protein S6 kinase alpha-5 (Homo sapiens) (UniProt O75582); assay: Inhibition of RPS6KA5 kinase domain 2 assessed as enzyme activity at 1 uM relative to untreated control; parameters: scale not given: the % may be the effect or the level left
[19] = biological target: Uncharacterized serine/threonine-protein kinase SBK3 (Homo sapiens) (UniProt P0C264); assay: Inhibition of SgK110 assessed as enzyme activity at 1 uM relative to untreated control; parameters: scale not given: the % may be the effect or the level left
[20] = biological target: STE20-like serine/threonine-protein kinase (Homo sapiens) (UniProt Q9H2G2); assay: Inhibition of SLK assessed as enzyme activity at 1 uM relative to untreated control; parameters: scale not given: the % may be the effect or the level left
[21] = biological target: Ephrin type-B receptor 4 (Homo sapiens) (UniProt P54760); assay: Inhibition of EPHB4 assessed as enzyme activity at 1 uM relative to untreated control; parameters: scale not given: the % may be the effect or the level left
[22] = biological target: Mitogen-activated protein kinase 15 (Homo sapiens) (UniProt Q8TD08); assay: Inhibition of ERK8 assessed as enzyme activity at 1 uM relative to untreated control; parameters: scale not given: the % may be the effect or the level left
[23] = biological target: Tyrosine-protein kinase Fer (Homo sapiens) (UniProt P16591); assay: Inhibition of FER assessed as enzyme activity at 1 uM relative to untreated control; parameters: scale not given: the % may be the effect or the level left
[24] = biological target: Tyrosine-protein kinase Fes/Fps (Homo sapiens) (UniProt P07332); assay: Inhibition of FES assessed as enzyme activity at 1 uM relative to untreated control; parameters: scale not given: the % may be the effect or the level left
[25] = biological target: Inhibitor of nuclear factor kappa-B kinase subunit epsilon (Homo sapiens) (UniProt Q14164); assay: Inhibition of IKK-epsilon assessed as enzyme activity at 1 uM relative to untreated control; parameters: scale not given: the % may be the effect or the level left
[26] = biological target: T1, Epidermal growth factor receptor (Homo sapiens) (UniProt P04626+P00533+Q15303+P21860); assay: Inhibition of EGFR L747-T751del,Sins mutant assessed as enzyme activity at 1 uM relative to untreated control; assay type: protein assay; parameters: scale not given: the % may be the effect or the level left
[27] = biological target: T1, Epidermal growth factor receptor (Homo sapiens); assay: Inhibition of EGFR S752-I759del mutant assessed as enzyme activity at 1 uM relative to untreated control; assay type: protein assay; parameters: scale not given: the % may be the effect or the level left
[28] = biological target: Serine/threonine-protein kinase 33 (Homo sapiens) (UniProt Q9BYT3); assay: Inhibition of STK33 assessed as enzyme activity at 1 uM relative to untreated control; parameters: scale not given: the % may be the effect or the level left
[29] = system: A-375; assay: Antitumor activity against human A375 SQ2 cells xenografted in CD1 mouse assessed as inhibition of tumor growth at 2 mg/kg, po qd for 14 days; assay type: functional; settings: A375-SQ2, 336 h
[30] = biological target: Activin receptor type-1 (Homo sapiens) (UniProt Q04771); assay: Inhibition of ACVR1 assessed as enzyme activity at 1 uM relative to untreated control; parameters: scale not given: the % may be the effect or the level left
[31] = biological target: Platelet-derived growth factor receptor alpha (Homo sapiens) (UniProt P16234); assay: Inhibition of PDGFRA assessed as enzyme activity at 1 uM relative to untreated control; parameters: scale not given: the % may be the effect or the level left
[32] = biological target: 3-phosphoinositide-dependent protein kinase 1 (Homo sapiens) (UniProt O15530); assay: Inhibition of PDPK1 assessed as enzyme activity at 1 uM relative to untreated control; parameters: scale not given: the % may be the effect or the level left
[33] = biological target: Serine/threonine-protein kinase pim-3 (Homo sapiens) (UniProt Q86V86); assay: Inhibition of PIM3 assessed as enzyme activity at 1 uM relative to untreated control; parameters: scale not given: the % may be the effect or the level left
[34] = biological target: Protein kinase C delta type (Homo sapiens) (UniProt Q05655); assay: Inhibition of PRKCdelta assessed as enzyme activity at 1 uM relative to untreated control; parameters: scale not given: the % may be the effect or the level left
[35] = biological target: Aurora kinase C (Homo sapiens) (UniProt Q9UQB9); assay: Inhibition of AURKC assessed as enzyme activity at 1 uM relative to untreated control; parameters: scale not given: the % may be the effect or the level left
[36] = biological target: Non-receptor tyrosine-protein kinase TYK2 (Homo sapiens) (UniProt P29597); assay: Inhibition of TYK2 kinase domain 1 assessed as enzyme activity at 1 uM relative to untreated control; parameters: scale not given: the % may be the effect or the level left
[37] = biological target: Wee1-like protein kinase (Homo sapiens) (UniProt P30291); assay: Inhibition of WEE1 assessed as enzyme activity at 1 uM relative to untreated control; parameters: scale not given: the % may be the effect or the level left

Ribosomal protein S6 kinase alpha-5 (Homo sapiens), sequence (O75582 whole entry, looked up, the tested form may be a part): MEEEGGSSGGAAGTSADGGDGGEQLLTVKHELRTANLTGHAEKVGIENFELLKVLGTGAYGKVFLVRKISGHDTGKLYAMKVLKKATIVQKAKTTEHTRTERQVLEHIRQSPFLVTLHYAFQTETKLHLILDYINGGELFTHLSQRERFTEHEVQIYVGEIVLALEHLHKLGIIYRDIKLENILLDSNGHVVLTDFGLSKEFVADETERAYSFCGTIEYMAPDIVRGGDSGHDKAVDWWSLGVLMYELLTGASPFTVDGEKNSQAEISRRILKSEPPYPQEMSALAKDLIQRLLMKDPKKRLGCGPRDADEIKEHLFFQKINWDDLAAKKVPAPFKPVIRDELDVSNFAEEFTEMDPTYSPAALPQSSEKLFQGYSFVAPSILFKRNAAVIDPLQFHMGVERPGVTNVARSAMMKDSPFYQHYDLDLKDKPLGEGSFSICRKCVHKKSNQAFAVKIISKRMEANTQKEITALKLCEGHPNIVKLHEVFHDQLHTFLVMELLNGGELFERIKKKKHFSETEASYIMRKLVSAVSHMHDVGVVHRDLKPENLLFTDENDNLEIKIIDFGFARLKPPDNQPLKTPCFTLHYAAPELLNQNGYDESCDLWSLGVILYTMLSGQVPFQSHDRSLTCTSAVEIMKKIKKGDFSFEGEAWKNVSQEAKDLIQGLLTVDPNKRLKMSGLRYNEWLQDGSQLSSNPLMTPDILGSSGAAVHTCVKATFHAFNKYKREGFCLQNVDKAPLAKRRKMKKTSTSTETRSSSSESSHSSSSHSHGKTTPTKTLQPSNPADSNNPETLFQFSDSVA
Inhibitor of nuclear factor kappa-B kinase subunit epsilon (Homo sapiens), sequence (Q14164 whole entry): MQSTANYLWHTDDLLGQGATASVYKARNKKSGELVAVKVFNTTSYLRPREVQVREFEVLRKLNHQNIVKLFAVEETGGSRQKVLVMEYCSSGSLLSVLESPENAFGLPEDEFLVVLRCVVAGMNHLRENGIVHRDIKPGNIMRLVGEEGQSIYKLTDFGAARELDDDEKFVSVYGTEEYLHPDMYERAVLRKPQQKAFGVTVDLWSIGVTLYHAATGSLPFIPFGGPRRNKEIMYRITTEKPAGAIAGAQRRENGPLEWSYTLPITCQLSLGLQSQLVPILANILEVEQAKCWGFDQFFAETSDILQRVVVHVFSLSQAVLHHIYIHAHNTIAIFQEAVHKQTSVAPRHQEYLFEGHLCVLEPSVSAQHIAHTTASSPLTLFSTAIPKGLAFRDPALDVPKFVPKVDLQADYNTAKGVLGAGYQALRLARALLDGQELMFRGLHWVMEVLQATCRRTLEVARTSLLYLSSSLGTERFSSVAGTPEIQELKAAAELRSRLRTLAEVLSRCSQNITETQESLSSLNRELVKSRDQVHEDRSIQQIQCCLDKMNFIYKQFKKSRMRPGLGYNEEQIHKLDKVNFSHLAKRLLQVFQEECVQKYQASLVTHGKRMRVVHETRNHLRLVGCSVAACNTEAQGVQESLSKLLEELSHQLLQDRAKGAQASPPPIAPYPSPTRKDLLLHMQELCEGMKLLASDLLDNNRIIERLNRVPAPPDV
Mitogen-activated protein kinase kinase kinase kinase 2 (Homo sapiens), sequence (Q12851 whole entry): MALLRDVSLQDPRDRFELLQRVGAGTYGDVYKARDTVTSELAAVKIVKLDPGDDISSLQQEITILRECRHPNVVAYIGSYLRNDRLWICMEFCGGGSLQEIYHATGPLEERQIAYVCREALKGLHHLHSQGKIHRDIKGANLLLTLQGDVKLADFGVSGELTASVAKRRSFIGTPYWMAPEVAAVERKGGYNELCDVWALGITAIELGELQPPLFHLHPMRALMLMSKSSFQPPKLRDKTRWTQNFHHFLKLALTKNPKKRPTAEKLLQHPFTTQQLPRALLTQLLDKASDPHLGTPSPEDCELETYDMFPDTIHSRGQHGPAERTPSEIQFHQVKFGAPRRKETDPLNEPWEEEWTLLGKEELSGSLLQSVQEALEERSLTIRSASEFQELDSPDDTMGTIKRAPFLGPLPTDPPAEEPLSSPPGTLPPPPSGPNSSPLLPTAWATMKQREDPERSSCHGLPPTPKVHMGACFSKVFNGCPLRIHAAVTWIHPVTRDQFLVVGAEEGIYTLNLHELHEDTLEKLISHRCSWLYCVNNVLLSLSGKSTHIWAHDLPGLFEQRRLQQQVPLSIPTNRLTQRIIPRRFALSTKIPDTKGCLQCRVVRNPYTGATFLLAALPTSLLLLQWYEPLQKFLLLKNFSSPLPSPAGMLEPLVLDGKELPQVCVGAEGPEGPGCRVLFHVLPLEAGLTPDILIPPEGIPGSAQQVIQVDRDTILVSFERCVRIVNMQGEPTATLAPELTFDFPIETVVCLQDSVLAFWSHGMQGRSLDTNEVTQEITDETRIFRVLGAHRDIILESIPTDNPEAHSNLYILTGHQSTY
Serine/threonine-protein kinase 33 (Homo sapiens), sequence (Q9BYT3 whole entry, looked up): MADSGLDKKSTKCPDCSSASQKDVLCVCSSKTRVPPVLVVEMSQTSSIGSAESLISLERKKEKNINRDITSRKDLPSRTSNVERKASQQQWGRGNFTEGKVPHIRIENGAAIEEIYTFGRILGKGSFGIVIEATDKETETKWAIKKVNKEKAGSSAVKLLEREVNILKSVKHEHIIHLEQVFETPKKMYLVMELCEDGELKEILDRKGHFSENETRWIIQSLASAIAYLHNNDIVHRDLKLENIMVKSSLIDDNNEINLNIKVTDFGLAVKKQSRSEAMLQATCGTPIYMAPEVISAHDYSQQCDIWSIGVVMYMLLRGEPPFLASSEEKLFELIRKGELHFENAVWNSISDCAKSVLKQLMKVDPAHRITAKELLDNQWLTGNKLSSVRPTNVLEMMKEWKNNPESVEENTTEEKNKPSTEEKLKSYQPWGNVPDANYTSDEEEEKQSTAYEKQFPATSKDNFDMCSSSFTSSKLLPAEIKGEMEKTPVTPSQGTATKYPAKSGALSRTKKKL
Calcium/calmodulin-dependent protein kinase kinase 2 (Homo sapiens), sequence (Q96RR4 2-588 limits assumed): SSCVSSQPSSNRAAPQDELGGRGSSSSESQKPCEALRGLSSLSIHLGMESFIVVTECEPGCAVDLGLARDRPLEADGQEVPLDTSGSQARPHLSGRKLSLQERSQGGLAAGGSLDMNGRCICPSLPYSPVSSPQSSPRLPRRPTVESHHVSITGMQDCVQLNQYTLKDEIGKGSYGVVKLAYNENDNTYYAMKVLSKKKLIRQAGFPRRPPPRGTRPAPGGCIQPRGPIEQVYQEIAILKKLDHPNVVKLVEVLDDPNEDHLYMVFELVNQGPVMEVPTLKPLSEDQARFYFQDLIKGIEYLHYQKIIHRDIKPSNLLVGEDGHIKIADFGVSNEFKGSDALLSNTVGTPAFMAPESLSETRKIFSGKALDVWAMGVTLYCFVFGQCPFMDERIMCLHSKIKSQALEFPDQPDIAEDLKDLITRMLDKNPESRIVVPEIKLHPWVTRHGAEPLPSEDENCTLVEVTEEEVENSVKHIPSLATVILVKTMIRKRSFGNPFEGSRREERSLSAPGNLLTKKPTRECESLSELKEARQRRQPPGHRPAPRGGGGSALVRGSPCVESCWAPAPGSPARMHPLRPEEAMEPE
Serine/threonine-protein kinase 24 (Homo sapiens), sequence (Q9Y6E0 whole entry, looked up): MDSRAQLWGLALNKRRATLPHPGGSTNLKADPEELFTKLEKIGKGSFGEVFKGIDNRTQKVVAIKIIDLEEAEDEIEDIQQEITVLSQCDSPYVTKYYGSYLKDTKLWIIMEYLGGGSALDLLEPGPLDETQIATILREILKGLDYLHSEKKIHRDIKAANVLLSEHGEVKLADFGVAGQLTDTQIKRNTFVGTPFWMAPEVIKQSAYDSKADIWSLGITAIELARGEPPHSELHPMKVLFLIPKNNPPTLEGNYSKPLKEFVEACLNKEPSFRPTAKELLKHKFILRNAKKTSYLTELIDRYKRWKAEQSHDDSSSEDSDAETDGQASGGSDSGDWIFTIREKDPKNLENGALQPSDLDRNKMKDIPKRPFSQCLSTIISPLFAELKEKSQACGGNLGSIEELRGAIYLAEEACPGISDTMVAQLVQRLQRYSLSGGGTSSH
Protein kinase C delta type (Homo sapiens), sequence (Q05655 whole entry, looked up): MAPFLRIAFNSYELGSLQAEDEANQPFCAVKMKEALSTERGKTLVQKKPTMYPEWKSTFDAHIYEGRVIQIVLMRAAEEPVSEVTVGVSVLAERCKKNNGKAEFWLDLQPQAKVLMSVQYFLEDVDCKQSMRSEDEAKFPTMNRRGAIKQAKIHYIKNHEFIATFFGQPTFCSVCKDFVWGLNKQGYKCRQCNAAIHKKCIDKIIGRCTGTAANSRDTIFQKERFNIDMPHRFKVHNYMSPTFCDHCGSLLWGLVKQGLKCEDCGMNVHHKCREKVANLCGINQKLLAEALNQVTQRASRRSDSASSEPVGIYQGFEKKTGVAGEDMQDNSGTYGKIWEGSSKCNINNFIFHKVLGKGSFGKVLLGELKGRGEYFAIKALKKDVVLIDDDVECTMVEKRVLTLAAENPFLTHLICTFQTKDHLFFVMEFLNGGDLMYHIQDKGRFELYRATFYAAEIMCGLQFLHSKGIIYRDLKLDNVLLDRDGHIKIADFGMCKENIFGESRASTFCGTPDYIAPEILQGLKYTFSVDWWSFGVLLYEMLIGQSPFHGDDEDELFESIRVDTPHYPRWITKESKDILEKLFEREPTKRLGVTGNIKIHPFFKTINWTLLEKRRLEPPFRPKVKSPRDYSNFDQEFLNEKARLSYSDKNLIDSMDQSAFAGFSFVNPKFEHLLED
Uncharacterized serine/threonine-protein kinase SBK3 (Homo sapiens), sequence (P0C264 whole entry): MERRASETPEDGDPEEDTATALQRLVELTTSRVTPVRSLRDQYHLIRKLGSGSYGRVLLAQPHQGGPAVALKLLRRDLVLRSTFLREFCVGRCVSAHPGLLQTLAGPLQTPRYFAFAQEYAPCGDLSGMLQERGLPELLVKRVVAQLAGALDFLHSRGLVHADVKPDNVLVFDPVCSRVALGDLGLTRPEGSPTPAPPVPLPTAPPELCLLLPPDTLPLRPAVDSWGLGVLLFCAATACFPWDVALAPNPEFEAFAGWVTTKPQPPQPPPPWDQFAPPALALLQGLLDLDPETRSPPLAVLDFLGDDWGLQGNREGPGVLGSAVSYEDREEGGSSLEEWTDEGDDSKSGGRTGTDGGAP

Compound `Cc1ccc2c(Nc3ccc(Cl)cc3)nccc2c1Nc1ncccc1-c1ncnc2[nH]cnc12.Cl.Cl.Cl` has a Vd [1] of 1.9 L/kg, an Activity [2] of 100% and an Activity [3] of 87%. The Activity [4] was 28%, the Activity [5] was 100% and the Activity [6] was 95%. For the same compound, the Activity [7] was 96%, the Activity [8] was 98% and the Activity [9] was 42%. It also gave an Activity [10] of 100%, an Activity [11] of 100% and an Activity [12] of 97%. The Activity [13] was 100%, the Activity [14] was 96% and the Activity [15] was 100%. It also gave an Activity [16] of 89%, an Activity [17] of 90% and an Activity [18] of 100%. The Activity [19] was 78%, the Activity [20] was 40% and the Activity [21] was 6.5%. It also gave an Activity [22] of 98%, an Activity [23] of 78% and an Activity [24] of 100%. It also gave an Activity [25] of 73%, an Activity [26] of 98% and an Activity [27] of 90%. It also gave an Activity [28] of 100%, an inhibition in vivo at 2 mg/kg [29] of 90% and an Activity [30] of 100%. For the same compound, the Activity [31] was 88%, the Activity [32] was 100% and the Activity [33] was 100%. The Activity [34] was 88%, the Activity [35] was 86% and the Activity [36] was 96%. The Activity [37] was 92%.
